Measurements published in the NIST ThermoML archive (doi:10.1021/je900938b).
Numbers after ± are expanded uncertainties.

Key:
[1] = 101.3 kPa, Liquid; for mass density: Pycnometric method
[2] = xn = mol fraction of the nth substance listed; conditions: 101 kPa, Liquid, x2 = 0; for mass density: Pycnometric method

| Structure (SMILES) | viscosity ([1]; 298.15 K) | viscosity ([1]; 303.15 K) | mass density ([1]; 303.15 K) | viscosity ([1]; 308.15 K) | mass density ([1]; 308.15 K) | viscosity ([1]; 313.15 K) | mass density ([1]; 313.15 K) | viscosity ([1]; 318.15 K) | viscosity ([1]; 323.15 K) | mass density ([1]; 323.15 K) | viscosity ([1]; 328.15 K) | viscosity ([1]; 333.15 K) | mass density ([1]; 333.15 K) | viscosity ([1]; 338.15 K) | mass density ([1]; 338.15 K) | further results |
| --- | --- | --- | --- | --- | --- | --- | --- | --- | --- | --- | --- | --- | --- | --- | --- | --- |
| OCCO [1,2-ethanediol] | 17.4 ± 0.39 mPa·s | 13.8 ± 0.31 mPa·s | 1107.1 ± 11 kg/m3 | 11.5 ± 0.26 mPa·s | 1103.5 ± 11 kg/m3 | 9.42 ± 0.21 mPa·s | 1100.3 ± 11 kg/m3 | 8.1 ± 0.18 mPa·s | 6.95 ± 0.15 mPa·s | 1093.5 ± 11 kg/m3 | 5.96 ± 0.13 mPa·s | 5.22 ± 0.11 mPa·s | 1085.6 ± 11 kg/m3 | 4.53 ± 0.1 mPa·s | 1082.1 ± 11 kg/m3 |  |
| OCC(O)CO [glycerol] | 943.8 ± 76 mPa·s | 628.9 ± 44 mPa·s | 1254.7 ± 13 kg/m3 | 431.9 ± 26 mPa·s | 1252.2 ± 12 kg/m3 | 295.9 ± 15 mPa·s | 1249.4 ± 12 kg/m3 | 185.8 ± 7.7 mPa·s | 151.2 ± 5.4 mPa·s | 1242.3 ± 12 kg/m3 | 108.4 ± 3.3 mPa·s | 84.8 ± 2.2 mPa·s | 1236.1 ± 12 kg/m3 | 62.2 ± 1.6 mPa·s | 1232.8 ± 12 kg/m3 | mass density ([1]; 298.15 K): 1257.8 ± 13 kg/m3; mass density ([1]; 318.15 K): 1245.8 ± 12 kg/m3; mass density ([1]; 328.15 K): 1239.3 ± 12 kg/m3 |
| OCCO [1,2-ethanediol] + OCC(O)CO |  |  |  |  |  |  |  |  |  |  |  |  |  |  |  | viscosity ([2]; 298.15 K): 17.4 ± 0.39 mPa·s; mass density ([2]; 303.15 K): 1107.1 ± 11 kg/m3; viscosity ([2]; 303.15 K): 13.8 ± 0.31 mPa·s; mass density ([2]; 308.15 K): 1103.5 ± 11 kg/m3; viscosity ([2]; 308.15 K): 11.5 ± 0.26 mPa·s; mass density ([2]; 313.15 K): 1100.3 ± 11 kg/m3; viscosity ([2]; 313.15 K): 9.42 ± 0.21 mPa·s; viscosity ([2]; 318.15 K): 8.1 ± 0.18 mPa·s; mass density ([2]; 323.15 K): 1093.5 ± 11 kg/m3; viscosity ([2]; 323.15 K): 6.95 ± 0.15 mPa·s; viscosity ([2]; 328.15 K): 5.96 ± 0.13 mPa·s; mass density ([2]; 333.15 K): 1085.6 ± 11 kg/m3; viscosity ([2]; 333.15 K): 5.22 ± 0.11 mPa·s; mass density ([2]; 338.15 K): 1082.1 ± 11 kg/m3; viscosity ([2]; 338.15 K): 4.53 ± 0.1 mPa·s |
